Earlier results as cited in US7893091B2, “Combination therapy for the treatment of urinary frequency, urinary urgency and urinary incontinence” (Merck Sharp & Dohme Corp., priority 2005, dated 2011).

Key:
rats [1] = test system: rats
rats [2] = test system: rats; remark: listed apart in the source
C-fibers [3] = conditions: instilled directly into the bladder
isolated bladder strips = conditions: tissue bath
C-fibers [4] = conditions: more potent than capsaicin

C[C@H](Cc1ccc2c(c1)OC(C(=O)[O-])(C(=O)[O-])O2)NC[C@H](O)c1cccc(Cl)c1.[Na+].[Na+] [CL316243]
voiding interval in the hyperreflexia paradigms (rats [1]; administered intravenously): dose-dependently normalizes voiding interval | spontaneous bladder contractions in the detrusor instability paradigm (rats [1]; administered orally): dose-dependent inhibition | bladder pressure (rats [1]; intravenous administration): reduces bladder pressure | bladder capacity in cystomeric studies (rats [1]; intravenous administration, prolongation of micturition interval without increasing residual urine volume): increases bladder capacity

COc1ccccc1CC(=N)N1C[C@@H]2C(=O)CCC(c3ccccc3)(c3ccccc3)[C@@H]2C1 [RP 67580]
volume threshold in cyclophosphamide-induced model of bladder overactivity (rats [2]; rats, i.t. versus i.v. administration): increased the volume threshold after i.t., but not i.v. administration

CC(=O)NC1(c2ccccc2)CCN(CC[C@H](CN(C)C(=O)c2ccccc2)c2ccc(Cl)c(Cl)c2)CC1 [SR 48968]
response in cyclophosphamide-induced model of bladder overactivity (rats [2]; 10 nmol/rat): moderate response

COc1cc(CNC(=O)CCCC/C=C/C(C)C)ccc1O [Capsaicin]
beneficial effects (i.e. increased bladder capacity), share of patients (C-fibers [3]): ~70 % of patients

Cc1ccc(-c2c3n(c(=O)c4ncccc24)CC[C@@H](C)CN(Cc2cc(C(F)(F)F)cc(C(F)(F)F)c2)C3=O)cc1 [TAK-637]
micturition reflex induced by electrical stimulation of the rostral brainstem near the locus coeruleus (decerebrate cats; 3 mg/kg i.v.): did not inhibit | voiding efficiency (decerebrate cats; decerebrate cats, 0.1, 0.3, 1 and 3 mg/kg i.v.): without any significant reduction | increase in bladder capacity (maximal increase) (decerebrate cats; decerebrate cats, 0.1, 0.3, 1 and 3 mg/kg i.v., dose-dependent): 94% | micturition reflex induced by topical application of capsaicin onto the surface of the bladder dome (guinea pig): inhibited | distension-induced rhythmic bladder contractions (guinea pig; systemic administration): decreased the number but not the amplitude | carbachol or electrical field stimulation induced contractions of isolated bladder strips (isolated bladder strips): had no effect

C=C(C)[C@]12C[C@@H](C)[C@@]34O[C@](Cc5ccccc5)(O[C@@H]1[C@@H]3C=C(COC(=O)Cc1ccc(O)c(OC)c1)C[C@]1(O)C(=O)C(C)=C[C@@H]41)O2 [Resinferatoxin]
potency relative to capsaicin (C-fibers [4]): ~100 fold
